Reference: DBAASP
Values after ≈ are worked out from the molar mass of the structure shown. One block for each compound: values may come before it.

Tests used:
Experiment in all cases: ≥ marks a high value that may be exact or a test limit, other limits are often not marked, values filed in µg/mL are converted to µM
[1] = test system: Proteus mirabilis MTCC 3158
[2] = test system: Staphylococcus haemolyticus MTCC 3383
[3] = test system: Citrobacter koseri MTCC 1657
[4] = test system: Klebsiella pneumoniae MTCC 7407
[5] = test system: Citrobacter freundii MTCC 1658
[6] = test system: Bordetella bronchiseptica MTCC 6837
[7] = test system: Klebsiella oxytoca MTCC 2275
[8] = test system: Shigella flexneri MTCC 1457
[9] = test system: Escherichia coli K12 MG1655
[10] = test system: Salmonella enterica subsp. enterica serovar Typhimurium ATCC 14028
[11] = test system: Acinetobacter baumannii MTCC 9829
[12] = test system: Vibrio cholerae MTCC 3904
[13] = test system: Klebsiella aerogenes MTCC 111
[14] = test system: Enterococcus faecalis MTCC 439
[15] = test system: Corynebacterium glutamicum MTCC 2679
[16] = test system: Shigella boydii MTCC 11947
[17] = test system: Alcaligenes faecalis MTCC 1937
[18] = test system: Alkalihalobacillus alcalophilus MTCC 860
[19] = test system: Pluralibacter gergoviae MTCC 3826
[20] = test system: Pseudomonas aeruginosa MTCC 3542
[21] = test system: Salmonella enterica MTCC 9844
[22] = test system: Staphylococcus aureus MTCC 3160
[23] = test system: Haemophilus influenzae MTCC 621
[24] = test system: Proteus vulgaris MTCC 1771
[25] = test system: Stenotrophomonas maltophilia MTCC 1890
[26] = test system: Pseudomonas aeruginosa CICC 10419
[27] = test system: Pseudomonas aeruginosa ATCC 27853
[28] = test system: Pseudomonas aeruginosa 25349
[29] = test system: Pseudomonas aeruginosa CICC 21625
[30] = test system: Pseudomonas aeruginosa CICC 11411
[31] = test system: Pseudomonas aeruginosa CICC 11421
[32] = test system: Pseudomonas aeruginosa CICC 21630
[33] = test system: Pseudomonas aeruginosa CICC 11431
[34] = test system: Escherichia coli ATCC 25922
[35] = test system: Staphylococcus aureus ATCC 29213
[36] = test system: Pseudomonas aeruginosa 21328
[37] = test system: Staphylococcus aureus ATCC 25923
Escherichia coli C25 = test system: Escherichia coli C25
Pseudomonas aeruginosa = test system: Pseudomonas aeruginosa
[38] = test system: Staphylococcus epidermidis
Aeromonas hydrophila = test system: Aeromonas hydrophila
Bacillus cereus = test system: Bacillus cereus
Shigella flexneri = test system: Shigella flexneri
[39] = test system: Corynebacterium glutamicum
Staphylococcus aureus = test system: Staphylococcus aureus
Pseudomonas fluorescens = test system: Pseudomonas fluorescens
Cryptococcus neoformans = test system: Cryptococcus neoformans
Vibrio alginolyticus = test system: Vibrio alginolyticus
Candida albicans = test system: Candida albicans
Vibrio parahaemolyticus = test system: Vibrio parahaemolyticus
Bacillus subtilis = test system: Bacillus subtilis
Escherichia coli = test system: Escherichia coli

Structure (SMILES): CC[C@H](C)[C@H](NC(=O)[C@@H](NC(=O)[C@H](CCC(N)=O)NC(=O)[C@H](CCCN=C(N)N)NC(=O)[C@H](C)NC(=O)[C@H](C)NC(=O)[C@H](C)NC(=O)[C@H](Cc1c[nH]c2ccccc12)NC(=O)[C@@H](N)CCC(=O)O)C(C)C)C(=O)N[C@H](C(=O)N[C@@H](Cc1cnc[nH]1)C(=O)N[C@@H](C)C(=O)N[C@H](C(=O)N[C@@H](CCCN=C(N)N)C(=O)N[C@@H](CCCCN)C(=O)N[C@@H](Cc1ccc(O)cc1)C(=O)O)[C@@H](C)O)[C@@H](C)CC [EWAAARQVIIHATRKY]
MIC [1]: ≥ 66.9 µM
MIC [2]: ≥ 66.9 µM
MIC [3]: ≥ 66.9 µM
MIC [4]: ≥ 66.9 µM
MIC [5]: ≥ 66.9 µM
MIC [6]: ≥ 66.9 µM
MIC [7]: ≥ 66.9 µM
MIC [8]: ≥ 66.9 µM
MIC [9]: ≥ 66.9 µM
MIC [10]: > 66.9 µM
MIC [11]: ≥ 66.9 µM
MIC [12]: ≥ 66.9 µM
MIC [13]: ≥ 66.9 µM
MIC [14]: ≥ 66.9 µM
MIC [15]: ≥ 33.5 µM
MIC [16]: ≥ 66.9 µM
MIC [17]: ≥ 66.9 µM
MIC [18]: ≥ 66.9 µM
MIC [19]: ≥ 66.9 µM
MIC [20]: ≥ 66.9 µM
MIC [21]: ≥ 66.9 µM
MIC [22]: ≥ 66.9 µM
MIC [23]: ≥ 66.9 µM
MIC [24]: ≥ 66.9 µM
MIC [25]: ≥ 66.9 µM

MIC [26]: ≥ 115 µM
MIC [27]: 14.4 µM (≈ 32 µg/mL)
MIC [28]: 20.4 µM (≈ 45.2 µg/mL)
MIC [29]: 28.8 µM (≈ 64 µg/mL)
MIC [30]: ≥ 57.7 µM
MIC [31]: ≥ 115 µM
MIC [32]: 14.4 µM (≈ 32 µg/mL)
MIC [33]: 28.8 µM (≈ 64 µg/mL)
MIC [34]: > 57.7 µM
MIC [35]: 28.8 µM (≈ 64 µg/mL)
MIC [36]: ≥ 57.7 µM
Structure (SMILES): CC(C)C[C@H](NC(=O)[C@H](CCCN=C(N)N)NC(=O)[C@H](CCCN=C(N)N)NC(=O)[C@H](CC(C)C)NC(=O)[C@H](Cc1c[nH]c2ccccc12)NC(=O)[C@H](CCCN=C(N)N)NC(=O)[C@H](CCCN=C(N)N)NC(=O)[C@H](CCCN=C(N)N)NC(=O)[C@H](CC(C)C)NC(=O)[C@H](CCCN=C(N)N)NC(=O)[C@H](CCCN=C(N)N)NC(=O)[C@@H](N)CC(C)C)C(=O)N[C@@H](CCCN=C(N)N)C(=O)N[C@@H](CCCN=C(N)N)C(=O)N[C@@H](CCCN=C(N)N)C(N)=O [LRRLRRRWLRRLRRR]

MIC [37]: 9.5 µM (≈ 15.7 µg/mL)
MIC (Escherichia coli C25): 9.5 µM (≈ 15.7 µg/mL)
Structure (SMILES): CC[C@H](C)[C@H](NC(=O)CNC(=O)[C@H](CCCN=C(N)N)NC(=O)[C@@H](NC(=O)[C@@H](NC(=O)[C@H](CCCN=C(N)N)NC(=O)[C@@H](NC(=O)[C@@H](NC(=O)[C@@H](N)CCCCN)[C@@H](C)CC)[C@@H](C)CC)C(C)C)[C@@H](C)CC)C(=O)N[C@H](C(=O)N[C@@H](CCCN=C(N)N)C(=O)N[C@@H](CCCN=C(N)N)C(=O)N[C@@H](CCCN=C(N)N)C(N)=O)[C@@H](C)CC [KIIRVIRGIIRRR]

MIC (Pseudomonas aeruginosa): 35.4 µM (≈ 108 µg/mL)
MIC [38]: ≥ 50 µM
MIC (Aeromonas hydrophila): ≥ 50 µM
MIC (Bacillus cereus): ≥ 50 µM
MIC (Shigella flexneri): ≥ 50 µM
MIC [39]: 8.84 µM (≈ 27 µg/mL)
MIC (Staphylococcus aureus): > 50 µM
MIC (Pseudomonas fluorescens): 17.7 µM (≈ 54 µg/mL)
MIC (Cryptococcus neoformans): ≥ 50 µM
MIC (Vibrio alginolyticus): ≥ 50 µM
MIC (Candida albicans): > 50 µM
MIC (Bacillus subtilis): 8.84 µM (≈ 27 µg/mL)
MIC (Escherichia coli): > 50 µM
Structure (SMILES): CC(C)C[C@H](NC(=O)[C@H](CO)NC(=O)[C@H](CC(C)C)NC(=O)[C@H](Cc1cnc[nH]1)NC(=O)[C@H](CO)NC(=O)[C@@H](N)CCC(N)=O)C(=O)N[C@H]1CSSC[C@@H](C(=O)N[C@@H](CCCCN)C(=O)N[C@@H](Cc2ccccc2)C(=O)O)NC(=O)[C@@H]2CSSC[C@@H]3NC(=O)[C@H](CSSC[C@H](NC(=O)[C@H](CC(N)=O)NC3=O)C(=O)N[C@H]3CSSC[C@H](NC(=O)CNC(=O)[C@H](CCCCN)NC(=O)[C@H](Cc4ccc(O)cc4)NC(=O)[C@H](CCCN=C(N)N)NC(=O)[C@H](CC(N)=O)NC3=O)C(=O)NCC(=O)N[C@@H](Cc3ccccc3)C(=O)N2)NC(=O)[C@H](Cc2c[nH]c3ccccc23)NC(=O)[C@H](CCCN=C(N)N)NC1=O [QSHLSLCRWCCNCCNRYKGCGFCCKF]
MIC (Vibrio parahaemolyticus): ≥ 50 µM
